Source: article PMC12592400, “A unique inhibitor conformation selectively targets the DNA polymerase PolC of Gram-positive priority pathogens” (Nature Communications, 2025)
Converted amounts (≈) assume the structure as drawn. “And” between values parts separate entries of the source, which are not always exact repeats. Equal values may be shown once.

Assays:
[1] = molecular target: exonuclease-inactivated E. faecium PolC (Exo^null, PolC^D431A+E433A) (Enterococcus faecium, UniProt A0A9X4B319, D429A/E431A); assay: Real-time DNA primer extension assay; type: biochemical; settings: for IC50: n = 3, ± SEM
Experimental: Polymerase activity was monitored in real-time[31],[32] with a 42-nt long 5’ carboxyfluorescein-labelled DNA oligonucleotide template strand (DNASP8_42) annealed to a 30-nt primer oligonucleotide (oMU014). Polymerase activity in this assay is monitored by measuring fluorescence quenching of the labelled DNA template as a result of primer extension by PolC (for details see Supplementary Fig. 1b, c). Both primers were HPLC purified. Primer extension assays were performed in Reaction Buffer (see Gel-based polymerase and exonuclease assays) supplemented with 0.5 mg/mL BSA, 0.05% Tween20 and 25 uM of each dNTP (SRB) in 384-well Black Round Bottom plates (Corning 4514). The polymerase was diluted in the SRB and incubated for at least 5 min in the presence of inhibitor or solvent, with a final solvent concentration of 1%. The reaction was initiated by the addition of an equal volume of DNA substrate in SRB as described below. Fluorescence emission data was collected with a BMG Labtech PHERAstar FSX reader for 30 min at room temperature.
Compounds were dispensed with an Echo acoustic liquid handler (Beckman Coulter). All compounds were dissolved to 1 mM and 10 mM stocks in 100% DMSO and transferred to Echo LDV or PP source plates (Labcyte, Inc., CA), then dispensed to 384-well plates with a Labcyte Echo550 or Echo650 acoustic dispenser at volumes of 2.5 to 100 nL per well. […] A Mantis microfluidic liquid dispenser (Formulatrix) was used to dispense 5 µL polymerase and 5 µL substrate DNA (individually diluted in SRB) per well. […] The final concentration of DNA was 70 nM.
Data were analysed and standard error of the means (SEM) determined in Prism 8.4.2 and 10.2.3 (GraphPad). Raw time-course polymerase activity was plotted against time, with SEM of triplicates determined. The rate of activity (represented by signal quenching) was determined during the first 8 min (linear stage) by calculating the slope of fluorescence intensity change (converted to a positive value) over time (in seconds). The slopes were then normalized to percentage activity (%); per ‘replicate range’, 100% activity was defined as polymerase activity in the absence of inhibitor (polymerase control), and 0% activity was determined in the absence of polymerase (DNA signal; negative control). The SEM was determined between ‘replicate ranges’. The IC50 was determined using the dose-response (inhibition) nonlinear regression ‘[Inhibitor] vs. response (three parameters)’ without constraints.

[2] = system: C. difficile 630Δerm; assay: Simplified agar dilution susceptibility of C. difficile carrying plasmid-based polC alleles; type: cell-based, Clostridioides difficile; settings: for MIC: Clostridioides difficile, 48 h
Experimental: E. coli strains were cultured aerobically at 37 °C at 180 rpm in Lysogeny Broth (LB) (1% w/v tryptone (Oxoid), 1% w/v NaCl (J.T.Baker), 0.5% w/v yeast extract). C. difficile strains were cultured in Brain Heart Infusion broth (BHI) (3.7% w/v brain heart infusion broth (Oxoid), 0.5% w/v yeast extract). Culturing of C. difficile was carried out anaerobically at 37 °C at 140 rpm in an atmosphere of 85% N2, 10% CO2, and 5% H2, using a Don Whitley VA1000 workstation. For solid media, 1.5% w/v agar (Alfa Aesar) was used. Where appropriate, media were supplemented with 50 mg/L colistin (Cayman Chemical), chloramphenicol (10 mg/L for liquid medium and 20 mg/L for agar plates), 30 mg/L kanamycin, and 15 mg/L thiamphenicol.
DNA fragments were amplified by PCR from total genomic DNA of C. difficile strain 630Δerm[40] with Q5 High-Fidelity DNA Polymerase (NEB), using oligonucleotides oNM-001/oNM-003 (amplifying the polC gene with its presumptive promoter). The oNM-001/oNM-003 PCR fragment was digested using KpnI (Roche) and BamHI (Thermo Scientific). Digesting of plasmid pAP24[65] with enzymes allowed for the isolation of plasmid backbone after agarose gel electrophoresis. The backbone was ligated to the digested PCR fragments and transformed into chemically competent DH5α E. coli cells by heat shock; transformants were selected on media containing chloramphenicol. To generate plasmids carrying variant polC genes, mutations were introduced in the plasmids harbouring wild-type polC using QuikChange Site-Directed Mutagenesis and verified by Sanger sequencing using primers listed in Supplementary Table 3. An overview of all constructed plasmids and strains can be found in Supplementary Table 4 and 5.
E. coli donor strain CA434 was transformed with the plasmid to be transferred and subsequently grown on agar plates containing chloramphenicol and kanamycin. A 1 mL aliquot of 20 h grown liquid E. coli transformant culture was pelleted by centrifugation (2 min at 10,000 x g) and cells were resuspended in 200 µL non-sporulating C. difficile 630Δerm culture. The mixture was plated onto non-selective BHI agar in 5 µL spots and after 20 h incubation, cells were harvested in 1 mL pre-reduced phosphate-buffered saline and plated in 100 µL aliquots on BHI agar supplemented with thiamphenicol and colistin. Putative transconjugants were confirmed by PCRs with primers oWKS-1070 and oWKS-1071 (targeting chromosomal gluD) and oWKS-1387, oWKS-1388, oWKS-1389, and oWKS-1390 (targeting traJ or repA on the plasmid). Note that these strains are merodiploid and carry a wild-type chromosomal copy of polC.
Susceptibilities of the parental and plasmid-carrying strains to IBZ and ACX-801 were determined using a simplified agar dilution method. In short, C. difficile strains were cultured for 20 h in liquid BHI. Bacterial cells were harvested by 10-min centrifugation at 3220 x g and resuspended in pre-reduced phosphate-buffered saline to a McFarland turbidity standard of 1.0. Suspensions were inoculated as 5 µL spots onto BHI agar containing different concentrations of inhibitor (0, 2, 4, 8, 16, 32, 64 mg/L). MICs (defined as the first dilution with severely impaired or no visible growth) were determined after 48 h and imaged on a SCAN500 plate imager (Interscience).

[3] = Fig. 1e source data, inhibitor 2.5 uM, replicates 1-3
[4] = Fig. 1e source data, inhibitor 4 uM, replicates 1-3
[5] = Fig. 1e source data, inhibitor 5.75 uM, replicates 1-3
[6] = Fig. 1e source data, inhibitor 8.75 uM, replicates 1-3
[7] = Fig. 1e source data, inhibitor 12.5 uM, replicates 1-3
[8] = Fig. 1e source data, inhibitor 20 uM, replicates 1-3
[9] = Fig. 1e source data, inhibitor 30 uM, replicates 1-3
[10] = Fig. 1e source data, inhibitor 45 uM, replicates 1-3
[11] = Fig. 1e source data, inhibitor 67.5 uM, replicates 1-3
[12] = Fig. 1e source data, inhibitor 100 uM, replicates 1-3
[13] = Fig. 4b source data, PolC (Exonull), inhibitor 1 uM
[14] = Fig. 4b source data, PolC (Exonull), inhibitor 1.75 uM
[15] = Fig. 4b source data, PolC (Exonull), inhibitor 2.5 uM
[16] = Fig. 4b source data, PolC (Exonull), inhibitor 4 uM
[17] = Fig. 4b source data, PolC (Exonull), inhibitor 5.75 uM
[18] = Fig. 4b source data, PolC (Exonull), inhibitor 8.8 uM
[19] = Fig. 4b source data, PolC (Exonull), inhibitor 20 uM
[20] = IC50, Fig. 1e, inhibitor 2.5-100 μM
[21] = IC50 PolC, Fig. 4b, wild-type PolC (exonuclease-inactivated), inhibitor up to 225 μM
[22] = plasmid carrying polC-p.F1258I versus wild-type strain
[23] = plasmid carrying polC-p.F1258L versus wild-type strain
[24] = plasmid carrying polC-p.F1258S versus wild-type strain

| Compound | rate of activity (slope of fluorescence intensity change over time) [1, 3] | rate of activity (slope of fluorescence intensity change over time) [1, 4] | rate of activity (slope of fluorescence intensity change over time) [1, 5] | rate of activity (slope of fluorescence intensity change over time) [1, 6] | rate of activity (slope of fluorescence intensity change over time) [1, 7] | rate of activity (slope of fluorescence intensity change over time) [1, 8] | rate of activity (slope of fluorescence intensity change over time) [1, 9] | rate of activity (slope of fluorescence intensity change over time) [1, 10] | rate of activity (slope of fluorescence intensity change over time) [1, 11] | rate of activity (slope of fluorescence intensity change over time) [1, 12] | rate of activity (slope of fluorescence intensity change over time) [1, 13] | rate of activity (slope of fluorescence intensity change over time) [1, 14] | rate of activity (slope of fluorescence intensity change over time) [1, 15] | rate of activity (slope of fluorescence intensity change over time) [1, 16] | rate of activity (slope of fluorescence intensity change over time) [1, 17] | rate of activity (slope of fluorescence intensity change over time) [1, 18] | rate of activity (slope of fluorescence intensity change over time) [1, 19] | IC50 [1, 20] | IC50 [1, 21] | MIC [2] | other results |
| --- | --- | --- | --- | --- | --- | --- | --- | --- | --- | --- | --- | --- | --- | --- | --- | --- | --- | --- | --- | --- | --- |
| O=c1[nH]c(NCc2ccc(Cl)c(Cl)c2)nc2ncn(CCN3CCOCC3)c12 [IBZ, N^2-(3,4-dichlorobenzyl)-7-(2-[1-morpholinyl]ethyl)guanine] | 31.9 and 18.7 and 16.2 | 28.6 and 14.0 | 24.9 and 15.1 and 11.5 | 19.6 and 9.9 and 9.1 | 18.4 and 12.8 and 8.3 | 8.2 and 4.7 | 9.1 and 5.5 and 3.7 | 6.8 and 2.9 and 1.6 | 4.7 and 1.7 and -0.348 | -0.9 and -0.439 and 1.4 | 34.5 and 33.9 and 33.6 | 31.8 and 30.8 | 27.4 and 24.3 | 19.3 and 20.4 | 12.7 and 13.8 | 8.9 and 8.1 and 9.9 | 4.0 and 3.7 and 2.8 | 12.3 µM | 4.7 ± 0.3 µM | 2 µg/mL (≈ 4.72 µM) | increase of MIC [2, 22]: 8 fold; increase of MIC [2, 23]: 32 fold; increase of MIC [2, 24]: 2 fold |
| O=c1[nH]c(NCc2ccc3c(c2)OC(F)(F)O3)nc2c(F)nn(CCO)c12 [ACX-801, 5-(((2,2-difluorobenzo[d][1,3]dioxol-5-yl)methyl)amino)-3-fluoro-1-(2-hydroxyethyl)-1,6-dihydro-7H-pyrazolo[4,3-d]pyrimidin-7-one] | 16.9 and 13.9 and 11.9 | 8.8 and 10.0 | 8.5 and 6.8 and 7.4 | 6.9 and 3.4 and 4.8 | 9.5 and 6.4 and 6.3 | 3.9 and 4.0 and 3.8 | 1.2 (2×) and 2.5 | 0.4 and -0.11 and -1.5 | -0.534 and -0.6 and -2.3 | -1.1 and -0.9 and -1.0 | 39.9 and 41.9 | 37.2 and 42.3 and 40.2 | 36.3 and 36.1 | 30.8 and 32.5 and 32.0 | 23.4 and 22.7 and 23.0 | 23.6 and 23.3 and 21.3 | 11.8 and 10.7 and 11.9 | 5.8 µM | 11.7 ± 1.1 µM | 2 µg/mL (≈ 5.22 µM) | rate of activity (slope of fluorescence intensity change over time) ([1]; Fig. 4b source data, PolC (Exonull), inhibitor 30 uM): 6.7 and 7.0 and 4.9; increase in the MIC ([2]; plasmid carrying polC-p.A1263T versus wild-type strain): fourfold; increase of MIC [2, 22]: 32 fold; increase of MIC [2, 23]: ≥ 32 fold; increase of MIC [2, 24]: 4 fold |
